For data set [1], the system named is osteoblast activity. As to conditions: intravenous infusion 0.55 U/kg/hr continuously for 24 hours, cited from earlier work.
Data set [2] concerns bone growth. Nature of the data set: Continuous infusion of hPTH1-34 in post-menopausal women with osteoporosis (Example 5). The format is in vivo, human. To be noted: continuous infusion 25 to 400 units/24 hrs by infusion pump, twelve months. The procedure:
The anabolic efficacy of the PTH/PTHrP agonists are tested in humans (Review in Dempster D. W., et al., Endocrine Rev., 1993, 14, 690-709). To determine if continuous administration of hPTH1-34 or its agonist is effective in promoting bone growth in humans, 30 post-menopausal women with established osteoporosis based on bone-density measurements are selected. A double-blind, placebo-controlled, randomized experiment is conducted where two groups of 15 women each are either placed on placebo treatment or continuous infusion of a defined dose of hPTH1-34 (25 units to 400 units/24 hrs) using an infusion pump.
The patients prior to the study are subject to the following: complete health and physical examination, evaluation of the nutritional status (particularly of calcium intake and serum calcium), full analysis of biomarkers for bone-turnover (Riis, B. J., Amer. J. Med. 1993, 95 [Suppl 5A], 17s-21s; Delmas, P. D., Amer. J. Med., […], 91 [Suppl 5B], 59s-63s), radiology, bone mass measurements of vertebral and axial sites (Gerant, H. K., et al., Amer. J. Med., 1991, 91 [Suppl 5B], 49s-53s; Wasnich, R. D., Amer J Med, 1991, 91 [Suppl 5B], 54s-58s) and bone biopsy, to establish the baseline parameters for each individual. […]

As to “hPTH1-34: synthetic amino-terminal fragment of PTH1-84 (human parathyroid hormone)”, in data set [1] (humans), the “blood levels of ionized calcium” value is reported as “increase”. The “serum levels of collagen type I” value in data set [1] (within 16 hours of infusion, six osteoporotic and two normal subjects) is “decreased”. For the same substance, the “bone mass measurements and bone biopsy” value in data set [2] is listed as “clear indication of bone growth”.

The values above are taken from patent publication US5747456A, “Continuous low-dose administration of parathyroid hormone or its agonist” (Beth Israel Deaconess Medical Center, priority 1996, dated 1998).
